Assay results from ChEMBL document CHEMBL4017485, “Chromone as a Privileged Scaffold in Drug Discovery: Recent Advances” (J Med Chem, 2017).
Converted amounts (≈) assume the structure as drawn. One block for each compound: values may come before it.

Columns and labels:
Staphylococcus aureus = test: Antibacterial activity against Staphylococcus aureus ATCC 6538 after 16 hrs by broth dilution method; type: functional; conditions: ATCC 6538, 16 h
Pseudomonas aeruginosa = test: Antibacterial activity against Pseudomonas aeruginosa ATCC 13384 after 16 hrs by broth dilution method; type: functional; conditions: ATCC 13384, 16 h
Entamoeba histolytica = test: Antiamoebic activity against trophozoite stage of Entamoeba histolytica HM-1:IMSS incubated for 24 hrs measured after 48 hrs by dilution micromethod; type: functional
[1] = molecular target: T1, Amine oxidase [flavin-containing] B (Homo sapiens, UniProt P27338); test: Inhibition of human MAO-B using p-tyramine as substrate by amplex red-based fluorescence assay
T1 sequence (P27338 whole entry): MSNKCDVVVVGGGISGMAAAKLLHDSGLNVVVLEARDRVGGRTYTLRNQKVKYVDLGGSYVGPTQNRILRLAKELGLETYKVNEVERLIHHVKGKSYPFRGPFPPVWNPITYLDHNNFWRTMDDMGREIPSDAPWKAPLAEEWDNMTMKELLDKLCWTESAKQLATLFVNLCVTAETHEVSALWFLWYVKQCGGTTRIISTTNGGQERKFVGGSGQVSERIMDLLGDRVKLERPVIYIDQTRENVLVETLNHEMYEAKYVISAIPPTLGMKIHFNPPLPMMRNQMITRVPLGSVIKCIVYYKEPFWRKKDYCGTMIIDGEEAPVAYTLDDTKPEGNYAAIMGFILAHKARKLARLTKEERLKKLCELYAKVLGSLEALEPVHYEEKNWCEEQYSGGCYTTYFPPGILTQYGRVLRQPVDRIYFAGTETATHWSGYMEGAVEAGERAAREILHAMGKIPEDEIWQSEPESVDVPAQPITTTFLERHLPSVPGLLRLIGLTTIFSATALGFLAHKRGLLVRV

[2] = Antioxidant activity assessed as DPPH free radical scavenging activity; type: functional
[3] = Inhibition of Saccharomyces cerevisiae alpha-glucosidase using PNP-G as substarte
MCF7 = test: Antiproliferative activity against human MCF7 cells after 4 hrs by MTT assay; type: functional, cell-based; conditions: MCF7, 4 h
Beta-secretase 1 = Beta-secretase 1 (Homo sapiens, UniProt P56817); test: Inhibition of recombinant human BACE-1 using rhodamine labelled EVNLDAEFK as substrate after 90 mins by FRET assay
Sequence of Beta-secretase 1 (P56817 whole entry): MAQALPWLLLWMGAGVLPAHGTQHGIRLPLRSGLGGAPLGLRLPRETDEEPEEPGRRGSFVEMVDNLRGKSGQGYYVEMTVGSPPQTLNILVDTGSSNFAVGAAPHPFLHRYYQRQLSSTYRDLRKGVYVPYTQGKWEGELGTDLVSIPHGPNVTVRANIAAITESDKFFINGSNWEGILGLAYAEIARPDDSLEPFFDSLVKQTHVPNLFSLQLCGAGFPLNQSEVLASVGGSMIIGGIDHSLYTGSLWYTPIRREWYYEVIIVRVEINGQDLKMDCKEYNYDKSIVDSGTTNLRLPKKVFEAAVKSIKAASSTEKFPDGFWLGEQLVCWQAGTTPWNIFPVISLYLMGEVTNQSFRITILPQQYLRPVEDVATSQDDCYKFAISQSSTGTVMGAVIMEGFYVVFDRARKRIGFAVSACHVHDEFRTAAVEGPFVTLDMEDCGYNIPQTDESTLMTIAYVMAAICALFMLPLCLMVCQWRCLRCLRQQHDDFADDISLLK

Acetylcholinesterase = Acetylcholinesterase (Electrophorus electricus, UniProt O42275); test: Inhibition of electric eel AChE using acetylthiocholine iodide as substrate preincubated with substrate for 15 mins followed by protein addition measured after 5 mins by Ellaman's method
Sequence of Acetylcholinesterase (O42275 whole entry): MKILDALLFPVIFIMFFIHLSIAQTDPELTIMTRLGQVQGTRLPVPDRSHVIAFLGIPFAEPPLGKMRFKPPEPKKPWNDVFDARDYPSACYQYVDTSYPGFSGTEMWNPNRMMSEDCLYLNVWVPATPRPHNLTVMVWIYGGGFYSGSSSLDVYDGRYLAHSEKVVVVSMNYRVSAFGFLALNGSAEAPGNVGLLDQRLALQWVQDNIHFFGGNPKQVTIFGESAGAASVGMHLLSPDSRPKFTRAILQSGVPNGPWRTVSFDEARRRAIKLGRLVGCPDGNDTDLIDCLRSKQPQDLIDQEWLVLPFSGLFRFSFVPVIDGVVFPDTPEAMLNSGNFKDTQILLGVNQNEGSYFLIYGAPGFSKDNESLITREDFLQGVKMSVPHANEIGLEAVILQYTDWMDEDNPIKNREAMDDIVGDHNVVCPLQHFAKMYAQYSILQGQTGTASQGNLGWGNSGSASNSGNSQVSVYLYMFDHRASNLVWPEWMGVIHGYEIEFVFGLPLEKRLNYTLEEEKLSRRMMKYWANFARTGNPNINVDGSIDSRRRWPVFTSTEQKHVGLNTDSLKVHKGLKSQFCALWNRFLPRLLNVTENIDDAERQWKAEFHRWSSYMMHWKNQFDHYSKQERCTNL

U2OS = test: Antiproliferative activity against human U2OS cells after 48 hrs by MTT assay; type: functional, cell-based
MG-63 = test: Antiproliferative activity against human MG63 cells after 48 hrs by MTT assay; type: functional, cell-based; conditions: MG-63, 48 h
Candida tropicalis = test: Antifungal activity against Candida tropicalis after 24 hrs by Neubauer chamber method; type: functional
KB = test: Antiproliferative activity against human KB cells after 4 hrs by MTT assay; type: functional, cell-based

SMILES: CC(C)(C)n1nnnc1C(Nc1ccccc1I)c1coc2ccccc2c1=O (stereo unspecified)
MIC (Staphylococcus aureus): 40 µg/mL (≈ 79.8 µM) | MIC (Pseudomonas aeruginosa): 160 µg/mL (≈ 319 µM) | IC50 (Entamoeba histolytica): 61.7 µg/mL (≈ 123 µM)

SMILES: CC(C)(C)n1nnnc1C(Nc1ccc(Cl)cc1)c1coc2cc(F)ccc2c1=O (stereo unspecified)
IC50 (Entamoeba histolytica): 61.7 µg/mL (≈ 144 µM)

SMILES: CCCCCC(=O)Oc1ccc2c(=O)c(C3C(OC(=O)CC)=C(C)NC(C)=C3OC(=O)CC)coc2c1
IC50 (Beta-secretase 1): 6.84 µM

SMILES: O=C1/C(=C/C2=COC3C=CC(Br)=CC3C2=O)COc2ccccc21 (stereo unspecified)
IC50 (Acetylcholinesterase): 0.96 µM

SMILES: NC1=C(/C=C2\COc3ccccc3C2=O)C(=O)C2C=CC=CC2O1 (stereo unspecified)
IC50 (Acetylcholinesterase): 0.27 µM

SMILES: COc1cc(NC(c2coc3cc(F)ccc3c2=O)c2nnnn2C2CCCCC2)cc(OC)c1OC (stereo unspecified)
MIC (Candida tropicalis): 6250 µg/mL (≈ 12300 µM) | MIC (Staphylococcus aureus): 160 µg/mL (≈ 314 µM) | MIC (Pseudomonas aeruginosa): 80 µg/mL (≈ 157 µM)

SMILES: CC(C)(C)n1nnnc1C(Nc1ccccc1)c1coc2cc(F)ccc2c1=O (stereo unspecified)
MIC (Staphylococcus aureus): 80 µg/mL (≈ 203 µM) | MIC (Pseudomonas aeruginosa): 20 µg/mL (≈ 50.8 µM)

The next lines start with results.

IC50 [1]: 0.0423 µM
SMILES: Cc1ccc(N/C=C2\C(=O)Oc3ccccc3C2=O)cc1

EC50 [2]: 17 µM | IC50 [3]: 16 µM
SMILES: O=c1c(/C=C/c2ccc(O)c(O)c2)coc2ccc(O)cc12

IC50 (MCF7): 32.8 µg/mL (≈ 103 µM)
SMILES: COc1ccc2c(=O)c(/C=C3\SC(=O)N(C)C3=O)coc2c1

EC50 [2]: 13 µM | IC50 [3]: 28 µM
SMILES: COc1ccc2c(c1)OC/C(=C\c1ccc(O)c(O)c1)C2=O

IC50 (U2OS): 63 µM
SMILES: O=c1cc(N2CCOCC2)oc2c(-c3ccccc3)cccc12 [LY-294002]
IC50 (MG-63): 55.2 µM

IC50 (KB): 44.1 µg/mL (≈ 145 µM)
SMILES: COc1ccc2c(=O)c(/C=C3\SC(=O)NC3=O)coc2c1
